How the values were obtained:
THP1 macrophages = test: ApoA1-specific cholesterol efflux from THP1 macrophages; type: cell-based, human
Protocol: (§1) Following differentiation to macrophages, THP1 cells were washed in serum-free medium and incubated in 5% FBS medium containing 1 μCi/mL of [^3H]-cholesterol (New England Nuclear) and 0.2% fatty acid-free BSA (faf BSA) for a further 24 h. The cells were washed in serum-free medium and then incubated for 24 h in serum-free medium supplemented with 1.5% faf BSA±test compound or vehicle (0.1% DMSO). The equilibration medium was removed and the cells washed twice in serum-free medium. Serum-free DMEM containing compound±purified human apolipoprotein (apo) Al ([…], Athens Research & Technology) was added. The cells were maintained for 24 h before medium and cell extract samples were generated. Scintillation counting was performed to determine the percentage cellular cholesterol efflux±apoAl. 1BR3N human skin fibroblast cells were plated in 6-well plates at a density of 1×10^6 cells/well in DMEM medium containing 10% FBS and cultured for 24 h. Efflux studies were performed as in the THP1 macrophages except that the cells were maintained for 48 h before scintillation counting was performed.

[1] = tested on: ABCA1 mRNA in THP1 macrophages; test: ABCA1 mRNA expression by RTQ-PCR in THP1 macrophages; type: cell-based, human; settings: for Induction of ABCA1 mRNA expression (in words): THP1 macrophages, 100 nM, FIG. 1A
Protocol: (§2) THP1 human monocyte cells (ATCC TID-202), in 6-well plates at a density of 1×10^6 cells/well in RPMI 1640 medium containing 10% FBS, were differentiated into macrophages by treatment with PMA (100 ng/ml) for 5 days. 1BR3N human skin fibroblasts (ECACC 90020508) and FHS74 human intestinal cells (ATCC CCL-241) were plated in 6 well plates at a density of 1×10^6 cells/well in the recommended maintenance media. Cells were treated with vehicle (0.1% DMSO) or test compound for 48 h prior to harvesting. Total RNA was generated using the Qiagen RNeasy Mini Kit and DNase treated according to the manufacturer's protocol (Ambion). ABCA1 expression was analysed using RTQ-PCR on an ABI PRISM 7700 sequence detection system (P. E. Applied Biosystems). Primer/probe sequences used were as follows: ABCA1 forward primer 5′-[…]-3′, (Seq ID No:1) reverse primer 5′-[…]-3′, (Seq ID No:2) probe 5′FAM-[…]-TAMRA3′ (Seq ID No:3) Expression data were normalised to 18S as described by the vendor.

[2] = tested on: ABCA1 mRNA in 1BR3N human skin fibroblasts; test: ABCA1 mRNA expression by RTQ-PCR in 1BR3N human skin fibroblasts; type: cell-based
Protocol: as §2

[3] = tested on: ABCA1 mRNA in FHS74 human intestinal cells; test: ABCA1 mRNA expression by RTQ-PCR in FHS74 human intestinal cells; type: cell-based
Protocol: as §2

[4] = tested on: 1BR3N human skin fibroblasts; test: ApoA1-specific cholesterol efflux from 1BR3N human skin fibroblasts; type: cell-based
Protocol: as §1

ABCA1 in macrophages = settings: 50 μM, reported in ref 16; cited from earlier work
macrophages = settings: 50 μM, reported in ref 16; cited from earlier work
[5] = THP1 macrophages, 100 nM, FIG. 1B

## CC(C)(Sc1ccc(CCN(CCCCC2CCCCC2)C(=O)NC2CCCCC2)cc1)C(=O)O [GW7647, reference compound]
THP1 macrophages; [5]
  Effect on cholesterol efflux (in words): ineffective
[1]
  Induction of ABCA1 mRNA expression (in words): only a weak effect

## COC(=O)c1ccccc1N[C@@H](Cc1ccc(OCCc2nc(-c3ccccc3)oc2C)cc1)C(=O)O [GW7845, reference compound]
THP1 macrophages; [5]
  Effect on cholesterol efflux (in words): ineffective
[1]
  Induction of ABCA1 mRNA expression (in words): also induced ABCA1 expression

## Cc1cc(SCc2sc(-c3ccc(C(F)(F)F)cc3)nc2C)ccc1OCC(=O)O [GW501516, 2-(2-methyl-4[({4-methyl-2[4-(trifluoromethyl)phenyl]-1,3-thiazol-5-yl}methyl)sulfanyl]phenoxy}acetic acid]
[2]; 1BR3N fibroblast, 48 h, (GW-vehicle)/vehicle × 100, mean ± S.D., triplicate
  ABCA1 mRNA (% increase): 240 ± 25%
[2]; 1BR3N human skin fibroblasts
  Increase in ABCA1 expression: 3.4 fold
THP1 macrophages; THP1 macrophage, (GW-vehicle)/vehicle × 100, mean ± S.D., triplicate
  Cholesterol efflux (% increase): 100 ± 15%
THP1 macrophages; [5]
  Increase in cholesterol efflux to apoA1: 2 fold
[1]; THP1 macrophage, 48 h, (GW-vehicle)/vehicle × 100, mean ± S.D., triplicate
  ABCA1 mRNA (% increase): 460 ± 150%
[1]
  Induction of ABCA1 mRNA expression (in words): strong induction
[3]; FHS74 human intestinal cells
  Increase in ABCA1 expression: 2.1 fold
[3]; FHS74 intestinal, 48 h, (GW-vehicle)/vehicle × 100, mean ± S.D., triplicate
  ABCA1 mRNA (% increase): 115 ± 30%
[4]; 1BR3N fibroblast, (GW-vehicle)/vehicle × 100, mean ± S.D., triplicate
  Cholesterol efflux (% increase): 110 ± 10%
[4]; 1BR3N human skin fibroblasts
  Increase in apoA1-specific cholesterol efflux: 2 fold

## Cc1cccc(Nc2cc(Cl)nc(SCC(=O)O)n2)c1C [Wy14,643]
ABCA1 in macrophages
  ABCA1 expression (in words): induces
macrophages
  Cholesterol efflux from macrophages (in words): induces
